Results as given in ChEMBL document CHEMBL5579865, “Discovery of Broad-Spectrum Herpes Antiviral Oxazolidinone Amide Derivatives and Their Structure-Activity Relationships” (ACS Med Chem Lett, 2024).
≈ marks a conversion by molar mass, not a printed value. Calls of active or inactive are those of the source. The calls are words filed in the database; no cut-off is given here.

Assays:
[1] = tested on: Human alphaherpesvirus 3; assay: Antiviral activity against VZV Street infected in human MeWo cells assessed as reduction in viral replication incubated for 72 hrs by qRT-PCR analysis; assay type: functional, organism-based; settings: Human alphaherpesvirus 3, Street, MeWo, 72 h; read-out: EC50
[2] = molecular target: Sodium channel protein type 5 subunit alpha (Homo sapiens, UniProt Q14524); assay: Inhibition of Nav1.5 (unknown origin)
[3] = tested on: Human betaherpesvirus 5; assay: Antiviral activity against HCMV AD169 infected in human MRC5 cells assessed as reduction in viral replication incubated for 72 hrs in presence of 50 % serum by qRT-PCR analysis; assay type: functional, organism-based; settings: Human betaherpesvirus 5, AD169, MRC5, 72 h; read-out: EC50
[4] = Metabolic stability in human liver microsomes assessed as intrinsic clearance; assay type: ADME, Microsome; settings: read-out: CLH
[5] = Inhibition of Inward-rectifier potassium channel (unknown origin); parameters: species or system Homo sapiens
[6] = tested on: Human alphaherpesvirus 1; assay: Antiviral activity against HSV-1 F strain infected in African green monkey Vero cells assessed as reduction in viral replication incubated for 72 hrs by qRT-PCR analysis; assay type: functional, organism-based; settings: Human alphaherpesvirus 1, F strain, Vero, 72 h; read-out: EC50
[7] = Inhibition of VZV DNA polymerase extracted from baculovirus infected Sf21 cells using Heterodimeric nucleic acid as substrate preincubated with enzyme for 30 mins followed by substrate and dATP addition measured after 60 mins by biotinylated UTP incorporation based AlphaLISA assay; parameters: species or system Human alphaherpesvirus 3
[8] = molecular target: Voltage-dependent L-type calcium channel subunit alpha-1C (Homo sapiens, UniProt Q13936); assay: Inhibition of Cav1.2 (unknown origin)
[9] = Unbound AUC in Wistar rat at 0.05 mg/kg,iv or 10 mg/kg,po administration; assay type: ADME, organism-based; settings: in vivo
[10] = Unbound fraction in Wistar rat plasma at 0.05 mg/kg,iv or 10 mg/kg,po administration; assay type: ADME, organism-based
[11] = MRT in Wistar rat at 0.05 mg/kg,iv or 10 mg/kg,po administration; assay type: ADME, organism-based; settings: in vivo
[12] = tested on: Human alphaherpesvirus 2; assay: Antiviral activity against HSV-2 G strain infected in African green monkey Vero cells assessed as reduction in viral replication incubated for 72 hrs by qRT-PCR analysis; assay type: functional, organism-based; settings: Human alphaherpesvirus 2, G strain, Vero, 72 h; read-out: EC50
[13] = Unbound volume of distribution in Wistar rat at 0.05 mg/kg,iv or 10 mg/kg,po administration; assay type: ADME, organism-based; settings: in vivo
[14] = Unbound clearance in Wistar rat at 0.05 mg/kg,iv administration; assay type: ADME, organism-based; settings: in vivo
[15] = Inhibition of HCMV DNA polymerase extracted from baculovirus infected Sf21 cells using Heterodimeric nucleic acid as substrate preincubated with enzyme for 30 mins followed by substrate and dATP addition measured after 60 mins by biotinylated UTP incorporation based AlphaLISA assay; parameters: species or system Human betaherpesvirus 5
[16] = Solubility in PBS at pH 7; assay type: physicochemical
[17] = Oral bioavailability in Wistar rat at 10 mg/kg administration; assay type: ADME, organism-based; settings: in vivo
[18] = tested on: Human alphaherpesvirus 3; assay: Antiviral activity against VZV Street infected in human MRC5 cells assessed as reduction in viral replication incubated for 72 hrs by qRT-PCR analysis; assay type: functional, organism-based; settings: Human alphaherpesvirus 3, Street, MRC5, 72 h
[19] = Unbound clearance in Wistar rat at 3 mg/kg,iv administration; assay type: ADME, organism-based; settings: in vivo
[20] = Unbound AUC in Wistar rat at 3 mg/kg,iv or 10 mg/kg,po administration; assay type: ADME, organism-based; settings: in vivo
[21] = MRT in Wistar rat at 3 mg/kg,iv or 10 mg/kg,po administration; assay type: ADME, organism-based; settings: in vivo
[22] = molecular target: Voltage-gated inwardly rectifying potassium channel KCNH2 (Homo sapiens, UniProt Q12809); assay: Inhibition of hERG by patch-clamp assay; assay type: toxicity
[23] = Unbound fraction in Wistar rat plasma at 3 mg/kg,iv or 10 mg/kg,po administration; assay type: ADME, organism-based
[24] = Unbound volume of distribution in Wistar rat at 3 mg/kg,iv or 10 mg/kg,po administration; assay type: ADME, organism-based; settings: in vivo
[25] = tested on: Cytomegalovirus; assay: Antiviral activity against Cytomegalovirus Smith intraperitoneally infected in BALB/c mouse assessed as reduction in viral burden in salivary gland at 25 mg/kg,ip qd administration measured after 10 days by plaque assay; assay type: functional, organism-based; settings: time 10.0 day
[26] = tested on: Cytomegalovirus; assay: Antiviral activity against Cytomegalovirus Smith intraperitoneally infected in BALB/c mouse assessed as reduction in viral burden in salivary gland at 50 mg/kg,po bid administration measured after 10 days by plaque assay; assay type: functional, organism-based; settings: route ip, time 10.0 day
[27] = tested on: Human alphaherpesvirus 1; assay: Antiviral activity against HSV-1 F strain intranasally infected in BALB/c mouse assessed as increase in mouse survival rate at 120 mg/kg,po bid administrated 2 days before viral infection measured after 2 days; assay type: functional, organism-based; settings: time 2.0 day
[28] = tested on: Human alphaherpesvirus 1; assay: Antiviral activity against HSV-1 F strain intranasally infected in BALB/c mouse assessed as increase in mouse survival rate at 30 mg/kg,po bid administrated 2 days before viral infection measured after 2 days; assay type: functional, organism-based; settings: time 2.0 day
[29] = tested on: Cytomegalovirus; assay: Antiviral activity against Cytomegalovirus Smith intraperitoneally infected in BALB/c mouse assessed as reduction in viral burden in spleen at 150 mg/kg,po bid administration measured after 4 days by plaque assay; assay type: functional, organism-based; settings: route ip, time 4.0 day
[30] = MRT in Wistar rat at 1 mg/kg,iv or 10 mg/kg,po administration; assay type: ADME, organism-based; settings: in vivo
[31] = tested on: Human alphaherpesvirus 1; assay: Antiviral activity against HSV-1 F strain intranasally infected in BALB/c mouse assessed as increase in mouse survival rate at 150 mg/kg,po bid administrated 2 days before viral infection measured after 2 days; assay type: functional, organism-based; settings: time 2.0 day
[32] = tested on: Human alphaherpesvirus 1; assay: Antiviral activity against HSV-1 F strain intranasally infected in BALB/c mouse assessed as reduction in viral burden in brain at 30 to 150 mg/kg,po bid administration measured after 4 days by plaque assay; assay type: functional, organism-based; settings: dose 30-150 mg/kg, time 4.0 day
[33] = Unbound AUC in Wistar rat at 1 mg/kg,iv or 10 mg/kg,po administration; assay type: ADME, organism-based; settings: in vivo
[34] = Unbound volume of distribution in Wistar rat at 1 mg/kg,iv or 10 mg/kg,po administration; assay type: ADME, organism-based; settings: in vivo
[35] = tested on: Cytomegalovirus; assay: Antiviral activity against Cytomegalovirus Smith intraperitoneally infected in BALB/c mouse assessed as reduction in viral burden in salivary gland at 150 mg/kg,po bid administration measured after 10 days by plaque assay; assay type: functional, organism-based; settings: route ip, time 10.0 day
[36] = tested on: Human alphaherpesvirus 1; assay: Antiviral activity against HSV-1 F strain intranasally infected in BALB/c mouse assessed as reduction in viral burden in lung at 30 to 150 mg/kg,po bid administration measured after 4 days; assay type: functional, organism-based; settings: dose 30-150 mg/kg, time 4.0 day
[37] = tested on: Human alphaherpesvirus 1; assay: Antiviral activity against HSV-1 F strain intranasally infected in BALB/c mouse assessed as increase in mouse survival rate at 150 mg/kg,po bid administration for 7 days relative to control; assay type: functional; settings: Human alphaherpesvirus 1, F strain, 168 h, time 7 day
[38] = Unbound clearance in Wistar rat at 1 mg/kg,iv administration; assay type: ADME, organism-based; settings: in vivo
[39] = tested on: Human alphaherpesvirus 1; assay: Antiviral activity against HSV-1 F strain intranasally infected in BALB/c mouse assessed as increase in mouse survival at po bid administration for 7 days; assay type: functional, organism-based; settings: time 7.0 day
[40] = tested on: Cytomegalovirus; assay: Antiviral activity against Cytomegalovirus Smith intraperitoneally infected in BALB/c mouse assessed as reduction in viral burden in salivary gland at 30 mg/kg,po bid administration measured after 10 days by plaque assay; assay type: functional, organism-based; settings: route ip, time 10.0 day
[41] = tested on: Cytomegalovirus; assay: Antiviral activity against Cytomegalovirus Smith intraperitoneally infected in BALB/c mouse assessed as reduction in viral burden in spleen at 30 mg/kg,po bid administration measured after 4 days by plaque assay; assay type: functional, organism-based; settings: route ip, time 4.0 day
[42] = Unbound fraction in Wistar rat plasma at 1 mg/kg,iv or 10 mg/kg,po administration; assay type: ADME, organism-based

Chain of Sodium channel protein type 5 subunit alpha (Q14524 whole entry): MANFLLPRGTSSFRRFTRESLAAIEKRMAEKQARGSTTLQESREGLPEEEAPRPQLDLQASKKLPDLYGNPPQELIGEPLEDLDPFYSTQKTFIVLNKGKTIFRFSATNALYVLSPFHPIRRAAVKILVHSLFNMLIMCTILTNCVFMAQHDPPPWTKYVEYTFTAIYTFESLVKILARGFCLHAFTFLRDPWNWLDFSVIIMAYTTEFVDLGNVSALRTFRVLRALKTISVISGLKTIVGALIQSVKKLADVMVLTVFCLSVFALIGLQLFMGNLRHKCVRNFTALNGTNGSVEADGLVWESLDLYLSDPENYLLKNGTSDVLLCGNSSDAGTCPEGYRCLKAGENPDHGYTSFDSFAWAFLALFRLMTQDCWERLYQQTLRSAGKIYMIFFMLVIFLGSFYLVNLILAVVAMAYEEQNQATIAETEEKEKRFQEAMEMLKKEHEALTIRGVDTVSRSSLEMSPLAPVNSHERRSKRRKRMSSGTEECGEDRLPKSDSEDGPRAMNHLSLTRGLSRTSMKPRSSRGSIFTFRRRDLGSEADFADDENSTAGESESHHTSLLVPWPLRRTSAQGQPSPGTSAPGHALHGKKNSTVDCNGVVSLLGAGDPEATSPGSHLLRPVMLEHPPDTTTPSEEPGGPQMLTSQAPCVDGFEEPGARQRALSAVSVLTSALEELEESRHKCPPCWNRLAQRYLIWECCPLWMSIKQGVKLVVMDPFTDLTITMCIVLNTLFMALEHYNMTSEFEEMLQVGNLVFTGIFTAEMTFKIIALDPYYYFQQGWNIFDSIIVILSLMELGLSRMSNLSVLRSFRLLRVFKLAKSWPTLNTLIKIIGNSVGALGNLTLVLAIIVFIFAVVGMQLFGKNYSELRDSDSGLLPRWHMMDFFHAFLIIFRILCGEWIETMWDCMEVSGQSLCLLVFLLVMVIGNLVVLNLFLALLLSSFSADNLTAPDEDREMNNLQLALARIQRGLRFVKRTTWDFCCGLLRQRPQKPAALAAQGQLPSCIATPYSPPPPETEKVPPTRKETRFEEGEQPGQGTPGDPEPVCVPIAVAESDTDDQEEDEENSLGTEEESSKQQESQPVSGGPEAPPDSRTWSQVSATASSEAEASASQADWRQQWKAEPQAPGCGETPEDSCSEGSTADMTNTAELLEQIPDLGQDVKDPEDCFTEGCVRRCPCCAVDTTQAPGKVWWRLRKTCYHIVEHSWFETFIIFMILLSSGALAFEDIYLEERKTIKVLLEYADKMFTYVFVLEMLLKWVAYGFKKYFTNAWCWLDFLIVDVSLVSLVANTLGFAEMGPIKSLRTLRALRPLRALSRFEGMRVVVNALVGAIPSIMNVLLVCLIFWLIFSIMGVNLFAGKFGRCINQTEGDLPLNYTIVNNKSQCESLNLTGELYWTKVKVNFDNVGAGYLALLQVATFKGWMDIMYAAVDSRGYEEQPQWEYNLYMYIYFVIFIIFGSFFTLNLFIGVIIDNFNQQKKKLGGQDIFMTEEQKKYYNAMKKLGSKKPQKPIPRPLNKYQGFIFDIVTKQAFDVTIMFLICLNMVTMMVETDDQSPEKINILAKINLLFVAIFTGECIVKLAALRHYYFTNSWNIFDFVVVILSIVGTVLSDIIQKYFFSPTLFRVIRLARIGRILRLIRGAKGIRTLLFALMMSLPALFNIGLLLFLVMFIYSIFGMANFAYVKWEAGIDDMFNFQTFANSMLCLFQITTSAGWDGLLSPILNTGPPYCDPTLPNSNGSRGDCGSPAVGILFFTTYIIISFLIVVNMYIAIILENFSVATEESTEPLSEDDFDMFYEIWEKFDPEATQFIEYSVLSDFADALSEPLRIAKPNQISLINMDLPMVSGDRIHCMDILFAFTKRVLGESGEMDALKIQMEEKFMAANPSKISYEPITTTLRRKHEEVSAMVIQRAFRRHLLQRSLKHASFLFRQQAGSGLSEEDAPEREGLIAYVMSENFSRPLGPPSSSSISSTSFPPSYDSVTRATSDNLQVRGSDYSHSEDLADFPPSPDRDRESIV
Chain of Voltage-gated inwardly rectifying potassium channel KCNH2 (Q12809 whole entry): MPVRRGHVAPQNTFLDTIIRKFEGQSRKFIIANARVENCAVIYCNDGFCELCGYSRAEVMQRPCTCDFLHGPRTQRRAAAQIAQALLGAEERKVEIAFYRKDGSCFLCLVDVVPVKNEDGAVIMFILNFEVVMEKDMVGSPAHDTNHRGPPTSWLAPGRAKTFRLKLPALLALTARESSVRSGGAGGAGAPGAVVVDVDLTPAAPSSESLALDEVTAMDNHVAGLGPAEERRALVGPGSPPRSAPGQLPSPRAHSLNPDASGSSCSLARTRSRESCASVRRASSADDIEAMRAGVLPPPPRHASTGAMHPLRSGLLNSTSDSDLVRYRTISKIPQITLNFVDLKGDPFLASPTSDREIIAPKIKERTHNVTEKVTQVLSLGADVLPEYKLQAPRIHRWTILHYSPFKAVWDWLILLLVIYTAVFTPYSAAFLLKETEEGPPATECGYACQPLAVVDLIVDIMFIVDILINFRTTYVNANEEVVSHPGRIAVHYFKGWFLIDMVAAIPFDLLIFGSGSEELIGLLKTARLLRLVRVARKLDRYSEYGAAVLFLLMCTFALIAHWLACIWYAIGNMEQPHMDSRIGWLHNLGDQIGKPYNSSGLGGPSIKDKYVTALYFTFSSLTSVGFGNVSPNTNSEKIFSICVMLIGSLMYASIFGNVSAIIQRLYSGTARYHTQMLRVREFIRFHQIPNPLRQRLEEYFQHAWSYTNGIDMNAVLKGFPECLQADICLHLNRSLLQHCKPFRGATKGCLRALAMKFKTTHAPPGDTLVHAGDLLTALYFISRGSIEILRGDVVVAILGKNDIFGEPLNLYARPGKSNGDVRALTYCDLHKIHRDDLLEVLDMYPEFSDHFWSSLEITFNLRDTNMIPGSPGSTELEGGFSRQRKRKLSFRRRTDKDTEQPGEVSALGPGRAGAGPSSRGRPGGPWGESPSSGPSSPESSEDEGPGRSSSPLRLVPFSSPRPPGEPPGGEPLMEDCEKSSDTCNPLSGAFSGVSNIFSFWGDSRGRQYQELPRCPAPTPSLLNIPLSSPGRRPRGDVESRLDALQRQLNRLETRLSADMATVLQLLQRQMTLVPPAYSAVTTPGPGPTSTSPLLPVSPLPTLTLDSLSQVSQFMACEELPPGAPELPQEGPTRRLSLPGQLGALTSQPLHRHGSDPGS

COc1cc(NC(=O)Cc2ccc(Cl)cc2Cl)ccc1C[C@H]1COC(=O)N1
EC50 [1]: 154 nM
IC50 [2]: 8200 nM
EC50 [3]: 349 nM
CLint scaled [4]: 20 mL/min/kg
IC50 [5]: 20900 nM
EC50 [6]: 198 nM
IC50 [7]: 12 nM
IC50 [8]: 9600 nM
fAUC [9]: 0.003 µM·h
fraction unbound [10]: 0.022
MRT [11]: 42 min
EC50 [12]: 222 nM
Vdu [13]: 33 L/kg
CL free [14]: 720 mL/min/kg
IC50 [15]: 16 nM
solubility [16]: 28 µM (≈ 11.5 µg/mL)

COc1cc(NC(=O)Cc2ccc(Br)cc2)ccc1C[C@H]1COC(=O)N1
IC50 [2]: 12100 nM
EC50 [3]: 420 nM
CLint scaled [4]: < 16 mL/min/kg
IC50 [5]: 21100 nM
bioavailability [17]: 23%
EC50 [6]: 124 nM
IC50 [7]: < 4 nM
IC50 [8]: 11100 nM
fAUC [9]: 0.002 µM·h
fraction unbound [10]: 0.022
MRT [11]: 54 min
EC50 [12]: 110 nM
Vdu [13]: 68 L/kg
CL free [14]: 1168 mL/min/kg
IC50 [15]: < 4 nM
EC50 [18]: 231 nM
solubility [16]: 90 µM (≈ 37.7 µg/mL)

COc1nc(NC(=O)Cc2ccc(Cl)cc2)ccc1C[C@H]1COC(=O)N1
EC50 [1]: 46 nM
CL free [19]: 444 mL/min/kg
IC50 [2]: 10000 nM
fAUC [20]: 0.299 µM·h
MRT [21]: 36 min
EC50 [3]: 249 nM
IC50 [22]: 16000 nM
IC50 [5]: 14200 nM
fraction unbound [23]: 0.025
Vdu [24]: 15 L/kg
bioavailability [17]: 62%
EC50 [6]: 70 nM
IC50 [7]: 15 nM
IC50 [8]: 13500 nM
EC50 [12]: 85 nM
IC50 [15]: 44 nM

Nc1nc2c(ncn2COC(CO)CO)c(=O)[nH]1
Activity [25]: inactive
Activity [26]: inactive

COc1cc(NC(=O)Cc2ccc(Cl)cc2)ccc1C[C@H]1COC(=O)N1
EC50 [1]: 97 nM
CL free [19]: 605 mL/min/kg
IC50 [2]: 10500 nM
fAUC [20]: 0.228 µM·h
MRT [21]: 42 min
EC50 [3]: 370 nM
IC50 [22]: 20000 nM
CLint scaled [4]: 16 mL/min/kg
IC50 [5]: 24500 nM
fraction unbound [23]: 0.027
Vdu [24]: 24 L/kg
bioavailability [17]: 27%
EC50 [6]: 100 nM
IC50 [7]: 17 nM
IC50 [8]: 12900 nM
EC50 [12]: 170 nM
IC50 [15]: 49 nM
solubility [16]: 161 µM (≈ 60.3 µg/mL)

Nc1nc2c(ncn2COCCO)c(=O)[nH]1
Activity [27]: Active

COc1cc(NC(=O)Cc2ccc(C(F)(F)F)cc2)ccc1C[C@H]1COC(=O)N1
Activity [28]: Active
EC50 [1]: 126 nM
Activity [29]: Active
IC50 [2]: 13200 nM
EC50 [3]: 641 nM
IC50 [22]: 27000 nM
CLint scaled [4]: 20 mL/min/kg
IC50 [5]: 25100 nM
MRT [30]: 108 min
Activity [31]: Active
Activity [32]: Active
fAUC [33]: 0.222 µM·h
bioavailability [17]: 71%
Vdu [34]: 20 L/kg
EC50 [6]: 115 nM
IC50 [7]: 13 nM
Activity [35]: Active
Activity [36]: Active
survival at 150 mg/kg [37]: 100%
IC50 [8]: 7600 nM
CL free [38]: 187 mL/min/kg
Activity [39]: Dose-Dependent Effect
Activity [40]: inactive
EC50 [12]: 114 nM
IC50 [15]: 22 nM
Activity [41]: inactive
solubility [16]: 129 µM (≈ 52.7 µg/mL)
fraction unbound [42]: 0.052
